Test results as given in patent US10336765B2, “Dihydropyranopyrimidinone derivatives, and use thereof” (St Pharm Co., LTD, priority 2015, dated 2019).
Read-outs that look alike come from different tables or passages of the source.

Biological target: T1, tankyrase 1 (Homo sapiens, UniProt O95271)
T1 construct: purchased Trevigen 4700-096-K
T1 sequence (O95271 1-1327): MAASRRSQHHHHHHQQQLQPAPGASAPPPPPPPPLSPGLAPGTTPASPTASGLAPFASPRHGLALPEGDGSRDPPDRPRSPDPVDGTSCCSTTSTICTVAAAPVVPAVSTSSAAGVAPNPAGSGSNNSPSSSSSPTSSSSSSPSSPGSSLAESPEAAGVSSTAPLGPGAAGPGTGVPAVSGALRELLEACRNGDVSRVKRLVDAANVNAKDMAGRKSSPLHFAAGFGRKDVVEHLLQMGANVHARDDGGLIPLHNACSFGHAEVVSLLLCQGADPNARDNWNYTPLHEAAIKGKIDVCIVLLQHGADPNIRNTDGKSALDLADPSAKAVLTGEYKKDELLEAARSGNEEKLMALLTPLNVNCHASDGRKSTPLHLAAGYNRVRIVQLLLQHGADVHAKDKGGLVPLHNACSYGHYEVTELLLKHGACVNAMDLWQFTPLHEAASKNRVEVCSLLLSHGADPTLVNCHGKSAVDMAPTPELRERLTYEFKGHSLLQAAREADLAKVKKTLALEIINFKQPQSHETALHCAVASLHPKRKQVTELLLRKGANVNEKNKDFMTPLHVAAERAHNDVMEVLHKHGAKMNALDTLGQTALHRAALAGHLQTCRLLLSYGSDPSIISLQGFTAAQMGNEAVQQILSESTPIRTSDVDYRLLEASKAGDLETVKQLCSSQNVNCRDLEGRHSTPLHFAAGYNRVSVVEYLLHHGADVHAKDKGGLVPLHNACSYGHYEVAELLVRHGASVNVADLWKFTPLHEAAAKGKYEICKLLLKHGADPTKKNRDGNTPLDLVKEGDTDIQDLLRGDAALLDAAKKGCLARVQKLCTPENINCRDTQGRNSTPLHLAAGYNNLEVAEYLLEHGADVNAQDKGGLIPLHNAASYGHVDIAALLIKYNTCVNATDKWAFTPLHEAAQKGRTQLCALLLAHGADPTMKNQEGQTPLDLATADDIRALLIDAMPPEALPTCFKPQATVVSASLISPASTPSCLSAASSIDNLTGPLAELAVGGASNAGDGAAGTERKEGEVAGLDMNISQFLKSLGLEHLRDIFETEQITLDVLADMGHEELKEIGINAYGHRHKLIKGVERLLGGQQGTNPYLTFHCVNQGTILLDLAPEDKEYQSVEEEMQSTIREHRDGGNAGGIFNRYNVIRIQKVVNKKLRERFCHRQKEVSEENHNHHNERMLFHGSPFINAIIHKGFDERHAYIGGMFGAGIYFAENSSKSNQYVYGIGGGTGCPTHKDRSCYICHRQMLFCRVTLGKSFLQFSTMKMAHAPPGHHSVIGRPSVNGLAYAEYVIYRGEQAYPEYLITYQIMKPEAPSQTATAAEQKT
Assay: Analysis of activity of tankyrase 1 (Trevigen kit, ELISA absorbance at 450 nm)
Format: biochemical
Protocol: Activities of novel compounds synthesized according to Examples 1 to 13 against tankyrase 1 were analyzed using a Trevigen kit (Cat. No. 4700-096-K). Poly PAR histone protein-coated 96-well plate, anti-PAR monoclonal antibody and goat anti-mouse IgG-HRP were used for measurement of absorbance by ELISA method. Specifically, 20×I-PAR assay buffer was diluted to 1× by adding water, and 50 μL of the diluted buffer was added to each well of the 96-well plate followed by reacting at rt for 30 min. Then, the supernatant was completely removed from each well and 10 μL of 1×I-PAR assay buffer and 15 μL of assay substrate were added to each well along with 1 μL of a 50× solution of inhibitors to be tested, which were the compounds obtained in the Examples 1 to 13. 10 mUnits/μL of tankyrase 1 enzyme was diluted 50-fold with 1×I-PAR assay buffer and 25 μL of the diluted enzyme was added to each well and reacted while stirring at rt for 30 min. One without any compound of the present invention was used as a positive control and another containing 1×I-PAR assay buffer with the same volume instead of tankyrase 1 enzyme was used as a negative control.
Upon completion of the reaction, 200 μL of PBSX, which was prepared by adding 0.1% triton X-100 to PBS, was added and removed and this washing process was repeated twice. Washing was repeated twice more using PBS in the same manner. 5× antibody diluent was diluted with distilled water to 1× concentration, 50 μL of the diluted goat anti-mouse IgG-HRP to 1/2000 was added to each well and reacted while stirring at rt for 30 min. Washes were carried out twice using PBSX and PBS, respectively. After adding 50 μL of TACS-sapphire to each well of the plate, the plate was blocked from light to react for 10 min to 15 min and the color of the reaction solution turned blue. To stop the reaction, 50 μL of 0.2N HCl was added to turn the solution yellow. Finally, the absorbance of the resulting solution was measured at 450 nm.

[1] = Trevigen kit Cat. No. 4700-096-K, reacted at rt for 30 min, absorbance at 450 nm, read-out: TNKS1 (IC50)

Structure (SMILES) | IC50 [1] | IC50
CN1CCN(Cc2cc(F)c(N3CCN(c4nc5c(c(=O)[nH]4)COCC5)CC3)c(F)c2)CC1 [Example 6, 2-(4-(2,6-difluoro-4-((4-methylpiperazin-1-yl)methyl)phenyl)piperazin-1-yl)-7,8-dihydro-3H-pyrano[4,3-d]pyrimidin-4(5H)-one] | 36.8 nM | –
CC(O)c1cc(F)c(N2CCN(c3nc4c(c(=O)[nH]3)COCC4)CC2)c(F)c1 (stereo not shown) [Example 7, 2-(4-(2,6-difluoro-4-(1-hydroxyethyl)phenyl)piperazin-1-yl)-7,8-dihydro-3H-pyrano[4,3-d]pyrimidin-4(5H)-one] | 21.8 nM | –
COCCOc1cc(F)c(C2(O)CCN(c3nc4c(c(=O)[nH]3)COCC4)CC2)c(F)c1 [Example 8, 2-(4-(2,6-difluoro-4-(2-methoxyethoxy)phenyl)-4-hydroxypiperidin-1-yl)-7,8-dihydro-3H-pyrano[4,3-d]pyrimidin-4(5H)-one] | 162 nM | –
O=C(COc1cc(F)c(N2CCN(c3nc4c(c(=O)[nH]3)COCC4)CC2)c(F)c1)N1CCCCC1 [Example 10, 2-(4-(2,6-difluoro-4-(2-oxo-2-(piperidin-1-yl)ethoxy)phenyl)piperazin-1-yl)-7,8-dihydro-3H-pyrano[4,3-d]pyrimidin-4(5H)-one] | 34.2 nM | –
COCCOc1cc(F)c(N2CCN(c3nc4c(c(=O)[nH]3)COCC4)CC2)c(F)c1 [Example 1, 2-(4-(2,6-difluoro-4-(2-methoxyethoxy)phenyl)piperazin-1-yl)-7,8-dihydro-3H-pyrano[4,3-d]pyrimidin-4(5H)-one] | – | 27.2 nM
CCN(CC)CCOc1cc(F)c(N2CCN(c3nc4c(c(=O)[nH]3)COCC4)CC2)c(F)c1 [Example 12, 2-(4-(4-(2-(diethylamino)ethoxy)-2,6-difluorophenyl)piperazin-1-yl)-7,8-dihydro-3H-pyrano[4,3-d]pyrimidin-4(5H)-one] | 33.6 nM | –
O=c1[nH]c(N2CCN(c3c(F)cc(OCCn4ccnc4)cc3F)CC2)nc2c1COCC2 [Example 13, 2-(4-(4-(2-(1H-imidazol-1-yl)ethoxy)-2,6-difluorophenyl)piperazin-1-yl)-7,8-dihydro-3H-pyrano[4,3-d]pyrimidin-4(5H)-one] | 25.4 nM | –
O=c1[nH]c(N2CCN(c3c(F)cc(OCCN4CCOCC4)cc3F)CC2)nc2c1COCC2 [Example 2, 2-(4-(2,6-difluoro-4-(2-morpholinoethoxy)phenyl)piperazin-1-yl)-7,8-dihydro-3H-pyrano[4,3-d]pyrimidin-4(5H)-one] | 40.6 nM | –
O=c1[nH]c(N2CCN(c3c(F)cc(OCC(O)CO)cc3F)CC2)nc2c1COCC2 (stereo not shown) [Example 5, 2-(4-(4-(2,3-dihydroxypropoxy)-2,6-difluorophenyl)piperazin-1-yl)-7,8-dihydro-3H-pyrano[4,3-d]pyrimidin-4(5H)-one] | 26.1 nM | –
COCCOc1cc(F)c(C2CCN(c3nc4c(c(=O)[nH]3)COCC4)CC2)c(F)c1 [Example 11, 2-(4-(2,6-difluoro-4-(2-methoxyethoxy)phenyl)piperidin-1-yl)-7,8-dihydro-3H-pyrano[4,3-d]pyrimidin-4(5H)-one] | 74.4 nM | –
Cn1nnc(C2CCN(c3nc4c(c(=O)[nH]3)COCC4)CC2)n1 [Example 9, 2-(4-(2-methyl-2H-tetrazol-5-yl)piperidin-1-yl)-7,8-dihydro-3H-pyrano[4,3-d]pyrimidin-4(5H)-one] | 803 nM | –
O=c1[nH]c(N2CCN(c3c(F)cc(OCCO)cc3F)CC2)nc2c1COCC2 [Example 4, 2-(4-(2,6-difluoro-4-(2-hydroxyethoxy)phenyl)piperazin-1-yl)-7,8-dihydro-3H-pyrano[4,3-d]pyrimidin-4(5H)-one] | 26.6 nM | –
O=c1[nH]c(N2CCN(c3c(F)cc(OCCN4CCCCC4)cc3F)CC2)nc2c1COCC2 [Example 3, 2-(4-(2,6-difluoro-4-(2-(piperidin-1-yl)ethoxy)phenyl)piperazin-1-yl)-7,8-dihydro-3H-pyrano[4,3-d]pyrimidin-4(5H)-one] | 40.3 nM | –
